Experimental data published in patent US11945801B2, “Bicyclic aza compounds as muscarinic M1 and/or M4 receptor agonists” (Heptares Therapeutics Limited, priority 2018, dated 2024).
Read-outs that look alike come from different tables or passages of the source.

Legend:
[1] = molecular target: T1, human muscarinic M1 receptor (Homo sapiens, UniProt P11229); assay: Alphascreen Surefire phospho-ERK1/2 functional assay, M1; format: cell-based; conditions: for EC50: agonist 5 min, 37° C.; for Emax: CHO
T1 sequence (P11229 1-460): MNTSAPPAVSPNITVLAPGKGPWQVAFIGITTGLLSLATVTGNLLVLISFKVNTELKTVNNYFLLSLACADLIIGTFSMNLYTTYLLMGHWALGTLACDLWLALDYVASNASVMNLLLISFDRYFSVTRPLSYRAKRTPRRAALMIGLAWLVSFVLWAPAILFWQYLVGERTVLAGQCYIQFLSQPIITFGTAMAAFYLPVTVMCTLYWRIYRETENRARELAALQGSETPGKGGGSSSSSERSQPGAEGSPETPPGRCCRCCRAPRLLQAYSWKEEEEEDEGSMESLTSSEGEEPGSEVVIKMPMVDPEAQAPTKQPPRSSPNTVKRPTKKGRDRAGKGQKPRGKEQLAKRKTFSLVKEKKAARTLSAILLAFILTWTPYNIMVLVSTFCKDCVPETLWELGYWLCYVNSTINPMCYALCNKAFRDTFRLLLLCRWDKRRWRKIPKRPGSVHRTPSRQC
Description: (§1) ERK1/2 phosphorylation is a downstream consequence of both Gq/11 and Gi/o protein coupled receptor activation, making it highly suitable for the assessment of M1, M3 (Gq/11 coupled) and M2, M4 receptors (Gi/o coupled), rather than using different assay formats for different receptor subtypes. CHO cells stably expressing the human muscarinic M1, M2, M3 or M4 receptor were plated (25K/well) onto 96-well tissue culture plates in MEM-alpha+10% dialysed FBS. Once adhered, cells were serum-starved overnight. Agonist stimulation was performed by the addition of 5 μL agonist to the cells for 5 min (37° C.). Media was removed and 50 μL of lysis buffer added. After […], a 4 μL sample was transferred to 384-well plate and 7 μL of detection mixture added.
(§2) Isomer assignment (Isomer 1, Isomer 2, etc.) is based on the retention time of the compound using the separation technique that was performed in the final purification step. By implication, this could be reversed phase HPLC, chiral HPLC or chiral SFC retention time, and this will vary from compound to compound.

[2] = molecular target: T2, human muscarinic M4 receptor (Homo sapiens, UniProt P08173); assay: Alphascreen Surefire phospho-ERK1/2 functional assay, M4; format: cell-based; conditions: for EC50 / % Emax cf. ACh, M4: CHO cells stably expressing human M4; for EC50: agonist 5 min, 37° C., read-out: pEC50 M4 (converted); for Emax: CHO
T2 construct: expressed in transfected cells
T2 sequence (P08173 1-479): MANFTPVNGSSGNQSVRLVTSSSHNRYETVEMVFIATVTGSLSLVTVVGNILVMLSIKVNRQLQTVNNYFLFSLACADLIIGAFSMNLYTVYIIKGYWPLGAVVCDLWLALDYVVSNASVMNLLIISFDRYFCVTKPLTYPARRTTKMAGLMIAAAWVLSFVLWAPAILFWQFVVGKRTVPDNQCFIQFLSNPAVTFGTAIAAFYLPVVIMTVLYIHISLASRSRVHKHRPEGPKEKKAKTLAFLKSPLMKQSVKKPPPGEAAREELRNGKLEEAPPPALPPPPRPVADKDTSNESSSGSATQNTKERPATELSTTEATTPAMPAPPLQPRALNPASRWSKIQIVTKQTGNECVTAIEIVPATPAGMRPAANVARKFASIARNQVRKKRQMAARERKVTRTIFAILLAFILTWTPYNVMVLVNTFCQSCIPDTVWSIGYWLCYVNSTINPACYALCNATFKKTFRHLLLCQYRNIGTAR
Description: as §1, §2

[3] = CHO cells stably expressing human M1, read-out: pEC50 M1 (converted)
[4] = read-out: % Emax cf. ACh, M1, CHO cells stably expressing human M1, Emax relative to ACh
[5] = read-out: % Emax cf. ACh, M4, CHO cells stably expressing human M4, Emax relative to ACh

Structure (SMILES)	EC50 [1, 3] [nM]	Emax [1, 4] [%]	EC50 [2] [nM]	Emax [2, 5] [%]	% Emax cf. ACh, M1 ([1]; CHO cells stably expressing human M1, Emax relative to ACh, listed as 4-5 Isomer 2) [%]	% Emax cf. ACh, M4 ([2]; Emax relative to ACh, listed as 4-5 Isomer 2) [%]	% Emax cf. ACh, M1 ([1]; CHO cells stably expressing human M1, Emax relative to ACh, listed as 4-9 Isomer 2) [%]	% Emax cf. ACh, M4 ([2]; Emax relative to ACh, listed as 4-9 Isomer 2) [%]	Emax ([1]; read-out: % Emax cf. ACh, M1) [%]	Emax ([2]; read-out: % Emax cf. ACh, M4) [%]	EC50 ([1]; pEC50 M1, CHO cells stably expressing human M1) [nM]
CCOC(=O)N1CC2CCC1CC2N1CC(OC(=O)N(CC)CC)C1 (single isomer, unassigned) [Example 6-1 Isomer 1, Ethyl 5-(3-((diethylcarbamoyl)oxy)azetidin-1-yl)-2-azabicyclo[2.2.2]octane-2-carboxylate]	1050	65	> 20000	9							
CCOC(=O)N1C2CCC1CC(N1CC(OC(=O)N3CCCOCC3)C1)C2 (mixture of isomers) [Example 5-2 Isomer mixture, 1-(8-(Ethoxycarbonyl)-8-azabicyclo[3.2.1]octan-3-yl)azetidin-3-yl 1,4-oxazepane-4-carboxylate]	2240		> 20000						92	19	
CCOC(=O)N1CC2(CCC(N3CC(OC(=O)N(CC)CC)C3)C2)C1 (single isomer, unassigned) [Example 4-5 Isomer 2, Ethyl 6-(3-((diethylcarbamoyl)oxy)azetidin-1-yl)-2-azaspiro[3.4]octane-2-carboxylate]	1120		> 20000		44	10					
CCOC(=O)N1C2CCCC1CC(N1CC(CC(=O)N(CC)CC)C1)C2 (single isomer, unassigned) [Example 3-1 Isomer 1, Ethyl-3-(3-(2-(diethylamino)-2-oxoethyl)azetidin-1-yl)-9-azabicyclo[3.3.1]nonane-9-carboxylate]	813		> 20000						106	23	
CCOC(=O)N1C2CCCC1CC(N1CC(OC(=O)N(CC)CC)C1)C2 (single isomer, unassigned) [Example 7-1 Isomer 1, Ethyl 3-(3-((diethylcarbamoyl)oxy)azetidin-1-yl)-9-azabicyclo[3.3.1]nonane-9-carboxylate]			2290						88	29	1290
CCOC(=O)N1C2CCCC1CC(N1CC(CC(=O)N3CCCC3)C1)C2 (single isomer, unassigned) [Example 3-2 Isomer 1, Ethyl-3-(3-(2-oxo-2-(pyrrolidin-1-yl)ethyl)azetidin-1-yl)-9-azabicyclo[3.3.1]nonane-9-carboxylate]	4790		933						68	68	
CCN(CC)C(=O)OC1CN(C2CCC3(C2)CN(C(=O)OC)C3)C1 (single isomer, unassigned) [Example 4-6 Isomer 1, Methyl 6-(3-((diethylcarbamoyl)oxy)azetidin-1-yl)-2-azaspiro[3.4]octane-2-carboxylate]	631	92	1120	33							
CCOC(=O)N1C2COCC1CC(N1CC(OC(=O)N3CCCCCC3)C1)C2 (single isomer, unassigned) [Example 8-1 Isomer 1, Ethyl 7-(3-((azepane-1-carbonyl)oxy)azetidin-1-yl)-3-oxa-9-azabicyclo[3.3.1]nonane-9-carboxylate]	257		1860						104	43	
CCOC(=O)N1C2CCC1CC(N1CC(CC(=O)N3CCC34CCC4)C1)C2 (single isomer, unassigned) [Example 1-3 Isomer 2, Ethyl-3-(3-(2-oxo-2-(1-azaspiro[3.3]heptan-1-yl)ethyl)azetidin-1-yl)-8-azabicyclo[3.2.1]octane-8-carboxylate]	115		> 20000						103	19	
CCOC(=O)N1CC2(CC(N3CC(OC(=O)N(CC)CC)C3)C2)C1 [Example 4-1, Ethyl 6-(3-((diethylcarbamoyl)oxy)azetidin-1-yl)-2-azaspiro[3.3]heptane-2-carboxylate]	832	83	1700	57							
CCOC(=O)N1C2CCC1CC(N1CC(CC(=O)N(CC)C(C)C)C1)C2 (mixture of isomers) [Example 1-2 Isomer mixture, Ethyl-3-(3-(2-(ethyl(isopropyl)amino)-2-oxoethyl)azetidin-1-yl)-8-azabicyclo[3.2.1]octane-8-carboxylate]	182		> 20000						100	7	

Further lines, with some results ahead:

EC50 [1, 3] [nM]	Emax [1, 4] [%]	EC50 [2] [nM]	Emax [2, 5] [%]	% Emax cf. ACh, M1 ([1]; CHO cells stably expressing human M1, Emax relative to ACh, listed as 4-5 Isomer 2) [%]	% Emax cf. ACh, M4 ([2]; Emax relative to ACh, listed as 4-5 Isomer 2) [%]	% Emax cf. ACh, M1 ([1]; CHO cells stably expressing human M1, Emax relative to ACh, listed as 4-9 Isomer 2) [%]	% Emax cf. ACh, M4 ([2]; Emax relative to ACh, listed as 4-9 Isomer 2) [%]	Structure (SMILES)	Emax ([1]; read-out: % Emax cf. ACh, M1) [%]	Emax ([2]; read-out: % Emax cf. ACh, M4) [%]	EC50 ([1]; pEC50 M1, CHO cells stably expressing human M1) [nM]
372	104	1020	46					CCOC(=O)N1CCC2(CC(N3CC(OC(=O)N4CCCOCC4)C3)C2)C1 (single isomer, unassigned) [Example 4-3 Isomer 2, 1-(6-(Ethoxycarbonyl)-6-azaspiro[3.4]octan-2-yl)azetidin-3-yl 1,4-oxazepane-4-carboxylate]			
355	92	1620	35					CCOC(=O)N1CC2CCC1CC2N1CC(OC(=O)N2CCCCC2)C1 (single isomer, unassigned) [Example 6-3 Isomer 1, Ethyl 5-(3-((piperidine-1-carbonyl)oxy)azetidin-1-yl)-2-azabicyclo[2.2.2]octane-2-carboxylate]			
6920	83	646	55					CCOC(=O)N1CC2CCC1CC2N1CC(OC(=O)N2CCCC2)C1 (single isomer, unassigned) [Example 6-2 Isomer 1, Ethyl 5-(3-((pyrrolidine-1-carbonyl)oxy)azetidin-1-yl)-2-azabicyclo[2.2.2]octane-2-carboxylate]			
1020	58	> 20000	9					CCOC(=O)N1CC2CCC1CC2N1CC(CC(=O)N2CCCOCC2)C1 (single isomer, unassigned) [Example 2-4 Isomer 1, Ethyl-5-(3-(2-(1,4-oxazepan-4-yl)-2-oxoethyl)azetidin-1-yl)-2-azabicyclo[2.2.2]octane-2-carboxylate]			
5620		389				84	85	CCOC(=O)N1CC2(CCC(N3CC(OC(=O)N4CCCOCC4)C3)C2)C1 (single isomer, unassigned) [Example 4-9 Isomer 2, 1-(2-(Ethoxycarbonyl)-2-azaspiro[3.4]octan-6-yl)azetidin-3-yl 1,4-oxazepane-4-carboxylate]			
813	58	> 20000	27					CCOC(=O)N1CC2CCC1CC2N1CC(OC(=O)N2CCCOCC2)C1 (single isomer, unassigned) [Example 6-5 Isomer 1, 1-(2-(Ethoxycarbonyl)-2-azabicyclo[2.2.2]octan-5-yl)azetidin-3-yl 1,4-oxazepane-4-carboxylate]			
